Consider ten molecules from patent US20260217672A1, “BENZAMIDE COMPOUNDS FOR TREATMENT OF BACTERIAL INFECTIONS” (Hoffmann-La Roche Inc., priority 2022, published 2026).

Assay [1] relates to Escherichia coli ATCC 25922. The assay is described as follows: Minimal Inhibitory Concentration (MIC) broth dilution assay. The format is cell-based. The note with it: ATCC25922, 20 h, read-out: MIC Escherichia coli ATCC 25922. The protocol: (§1) The antibacterial activity of the compounds of the present invention was evaluated against the commonly used quality control strain Escherichia coli ATCC 25922 and the rifampin-resistant mutant strain Klebsiella pneumonia ATCC 43816. Both were originally derived from human clinical samples and are available from ATCC (American Type Culture Collection). The in vitro potency of compounds to inhibit Escherichia coli (ATCC 25922) and Klebsiella pneumonia (ATCC 43816) growth was assessed by the MIC (Minimal Inhibitory Concentration) broth dilution method. Specifically compound dilutions were prepared from 10 mM DMSO stock solutions as follows: i) serial 2-fold dilution in 20 μL DMSO were prepared in a master plate (Greiner, Cat No: 651201), ii) 180 μL sterile distilled water was added to each aliquot and iii) 10 μL diluted compounds were transferred into a new assay plate (Costar, 3599).
(§2) Vials of each test microorganisms were maintained frozen in the vapor phase of a liquid nitrogen freezer. Single-use frozen vials of the two strains Escherichia coli ATCC 25922 (KWIKSTIK, 0335K) and Klebsiella pneumonia ATCC 43816, with predetermined CFU/mL, were taken out from the freezer, thawed at room temperature, and diluted in Cation-Adjusted Mueller Hinton Broth (CAMHB) to achieve a final inoculum of 5×10^5 CFU/mL. 90 μL bacteria containing broth was dispensed to the assay plate containing the pre-dispensed compound dilutions and mixed by pipetting 5 times.
(§3) Then the assay plates were incubated for 20 hours at 35° C. in ambient air. Following incubation, the MIC ([…]), the lowest concentration of drug that inhibits visible growth of the microorganism was read with the help of a magnification mirror and recorded.
For orientation: In broth dilution the organism is exposed to a series of concentrations in liquid medium.

For assay [2], the system named is Klebsiella pneumonia ATCC 43816. Described as above. In kind it is cell-based. The note with it: Klebsiella pneumoniae, ATCC43816, 20 h, read-out: MIC Klebsiella pneumoniae ATCC43816. As for the experimental part:
as §1, §2, §3

Converted amounts (≈) assume the structure as drawn.

For the molecule `O=C(Nc1ccc(S(=O)(=O)N2CCN(c3cc(C(F)(F)F)cc(Cl)n3)CC2)cc1)c1cccc(N2C[C@H]3CN[C@H]3C2)c1` (stereo in doubt) [Example 052, N-[4-[4-[6-Chloro-4-(trifluoromethyl)-2-pyridyl]piperazin-1-yl]sulfonylphenyl]-3-[3,6-diazabicyclo[3.2.0]heptan-3-yl]benzamide], the results for the MIC in assay [1] and in assay [2] were 1.1 µg/mL (≈ 1.77 µM) and 2.3 µg/mL (≈ 3.7 µM), respectively.
For the molecule `NCCC1CCCN1Cc1ccc(C(=O)Nc2ccc(S(=O)(=O)N3CCN(c4cc(C(F)(F)F)cc(Cl)n4)CC3)cc2)cc1` (stereo in doubt) [Example 072, N-[4-[4-[6-chloro-4-(trifluoromethyl)-2-pyridyl]piperazin-1-yl]sulfonylphenyl]-4-[[(2S)-2-(2-aminoethyl)pyrrolidin-1-yl]methyl]benzamide], the MIC (in general, the lowest concentration found to suppress growth) in assay [1] amounted to 1 µg/mL (≈ 1.54 µM); in assay [2], 2 µg/mL (≈ 3.07 µM).
As to `NCCCNCc1ccc(C(=O)Nc2ccc(S(=O)(=O)N3CCN(c4cc(C(F)(F)F)ccn4)CC3)cc2)cc1` [Example 002, 4-[(3-Aminopropylamino)methyl]-N-[4-[4-[4-(trifluoromethyl)-2-pyridyl]piperazin-1-yl]sulfonylphenyl]benzamide], the MIC in assay [1] amounted to 1.8 µg/mL (≈ 3.12 µM); in assay [2], 5.4 µg/mL (≈ 9.36 µM).
With `NCCCNCc1ccc(C(=O)Nc2ccc(S(=O)(=O)N3CCN(c4cc(C(F)(F)F)c(Cl)cn4)CC3)cc2)cc1` [Example 003, 4-[(3-Aminopropylamino)methyl]-N-[4-[4-[5-chloro-4-(trifluoromethyl)-2-pyridyl]piperazin-1-yl]sulfonylphenyl]benzamide], the MIC in assay [1] came out at 1.4 µg/mL (≈ 2.29 µM); in assay [2] it was 3.8 µg/mL (≈ 6.22 µM).
The matching figures for `NCCCNCc1ccc(C(=O)Nc2ccc(S(=O)(=O)N3CCN(c4cc(Cl)cc(C(F)(F)F)c4)CC3)cc2)cc1` [Example 004, 4-[(3-Aminopropylamino)methyl]-N-[4-[4-[3-chloro-5-(trifluoromethyl)phenyl]piperazin-1-yl]sulfonylphenyl]benzamide]: 1.9 µg/mL (≈ 3.11 µM) and 3.8 µg/mL (≈ 6.23 µM).
In the same order, the values of `NCCCNCc1ccc(C(=O)Nc2ccc(S(=O)(=O)N3CCN(c4cc(C(F)(F)F)nc(Cl)n4)CC3)cc2)cc1` [Example 005, 4-[(3-Aminopropylamino)methyl]-N-[4-[4-[2-chloro-6-(trifluoromethyl)pyrimidin-4-yl]piperazin-1-yl]sulfonylphenyl]benzamide] are 1.9 µg/mL (≈ 3.1 µM) and 7.7 µg/mL (≈ 12.6 µM).
In the case of `NCCCNCc1ccc(C(=O)Nc2ccc(S(=O)(=O)N3CCN(c4cc(C(F)(F)F)c(C5CC5)cn4)CC3)cc2)cc1` [Example 008, 4-[(3-Aminopropylamino)methyl]-N-[4-[4-[5-cyclopropyl-4-(trifluoromethyl)-2-pyridyl]piperazin-1-yl]sulfonylphenyl]benzamide], the MIC in assay [2] was found to be 7.7 µg/mL (≈ 12.5 µM).
For the molecule `Cc1cnc(N2CCN(S(=O)(=O)c3ccc(NC(=O)c4ccc(CCNCCCN)cc4)cc3)CC2)cc1C(F)(F)F` [Example 013, 4-[2-(3-Aminopropylamino)ethyl]-N-[4-[4-[5-methyl-4-(trifluoromethyl)-2-pyridyl]piperazin-1-yl]sulfonylphenyl]benzamide], the MIC in assay [1] was 0.94 µg/mL (≈ 1.55 µM).
As for `O=C1CC(CNCc2cccc(C(=O)Nc3ccc(S(=O)(=O)N4CCN(c5cc(C(F)(F)F)cc(Cl)n5)CC4)cc3)c2)CN1` (stereo not shown) [Example 085, N-[4-[4-[6-chloro-4-(trifluoromethyl)-2-pyridyl]piperazin-1-yl]sulfonylphenyl]-3-[[(5-oxopyrrolidin-3-yl)methylamino]methyl]benzamide], the MIC in assay [1] was found to be 1.2 µg/mL (≈ 1.84 µM).
Same read-out and setting: for `CN(C)C(=O)CCNCc1cccc(C(=O)Nc2ccc(S(=O)(=O)N3CCN(c4cc(C(F)(F)F)cc(Cl)n4)CC3)cc2)c1` [Example 086, N-[4-[4-[6-chloro-4-(trifluoromethyl)-2-pyridyl]piperazin-1-yl]sulfonylphenyl]-3-[[[3-(dimethylamino)-3-oxo-propyl]amino]methyl]benzamide] the value was 2.4 µg/mL (≈ 3.67 µM).
